Here are results for 13 compounds from patent US7179823B1, “5-membered n-heterocyclic compounds with hypoglycemic and hypolipidemic activity” (Takeda Pharmaceutical Company Limited, priority 1999, dated 2007).

As a reminder, the melting point is the temperature of the solid-liquid transition.

Compound `O=C(O)c1cn(Cc2ccc(OCc3csc(-c4ccccc4)n3)cc2)nc1-c1ccccc1` [Example 94, 3-phenyl-1-[4-(2-phenyl-4-thiazolylmethoxy)benzyl]-1H-pyrazol-4-carboxylic acid] returned a melting point of 119 to 120 °C.
The value for `CCOc1cc(Cn2cc(CCC(=O)O)c(OCC)n2)ccc1OCc1nc(-c2ccccc2)oc1C` [Example 217, 3-[3-ethoxy-1-[3-ethoxy-4-(5-methyl-2-phenyl-4-oxazolylmethoxy)benzyl]-1H-pyrazol-4-yl]propionic acid] was 105 to 106 °C.
With `CCOC(=O)CCc1cn(Cc2ccc(OC)c(OCc3nc(-c4ccccc4)oc3C)c2)nc1OCC` [Example 214, ethyl 3-[3-ethoxy-1-[4-methoxy-3-(5-methyl-2-phenyl-4-oxazolylmethoxy)benzyl]-1H-pyrazol-4-yl]propionate] the figure was 109 to 110 °C.
The value for `CCOc1nn(Cc2ccc(OCc3ccc(-c4ccccc4)nc3)cc2)cc1CCC(=O)O` [Example 230, 3-[3-ethoxy-1-[4-(6-phenyl-3-pyridylmethoxy)benzyl]-1H-pyrazol-4-yl]propionic acid] was 140 to 141 °C; that for `Cc1sc(-c2ccccc2)nc1COc1ccc(Cn2cc(CCC(=O)O)c(-c3ccccc3)c2)cc1` [Example 28, 3-[1-[4-(5-methyl-2-phenyl-4-thiazolylmethoxy)benzyl]-4-phenyl-3-pyrrolyl]propionic acid] was 157 to 158 °C; that for `O=C(O)CCc1cn(Cc2ccc(OCc3ccc(-c4ccccc4)nc3)cc2)cc1-c1ccccc1` [Example 277, 3-[4-phenyl-1-[4-(6-phenyl-3-pyridylmethoxy)benzyl]-3-pyrrolyl]propionic acid] was 185 to 186 °C.
Regarding `Cc1oc(-c2ccccc2)nc1COc1ccc(Cn2cc(CCC(=O)O)c(-c3ccc(C(F)(F)F)cc3)n2)cc1` [Example 98, 3-[1-[4-(5-methyl-2-phenyl-4-oxazolylmethoxy)benzyl]-3-(4-trifluoromethylphenyl)-1H-pyrazol-4-yl]propionic acid], the melting point lay within 149 to 150 °C.
Consider `Cn1c(COc2ccc(Cn3cc(CCC(=O)O)c(-c4ccccc4)n3)cc2)nc2ccccc21` [Example 292, 3-[1-[4-(1-methyl-1H-benzimidazol-2-ylmethoxy)benzyl]-3-phenyl-1H-pyrazol-4-yl]propionic acid], for which the melting point was in the range of 225 to 226 °C.
With `CCOc1nn(Cc2ccc(OCc3csc(-c4ccccc4)n3)nc2)cc1CCC(=O)O` [Example 254, 3-[3-ethoxy-1-[6-(2-phenyl-4-thiazolylmethoxy)-3-pyridylmethyl]-1H-pyrazol-4-yl]propionic acid] the figure was 121 to 122 °C.
Regarding `O=C(O)CCc1cn(Cc2ccc3cc(OCc4ccccc4F)ccc3c2)cc1-c1ccccc1` [Example 56, 3-[1-[6-(2-fluorobenzyloxy)-2-naphthylmethyl]-4-phenyl-3-pyrrolyl]propionic acid], the melting point fell in the range of 143 to 144 °C.
With `CCOc1cc(Cn2cc(CCC(=O)O)c(-c3ccccc3)c2)cc(OCc2csc(-c3cccs3)n2)c1` [Example 276, 3-[1-[3-ethoxy-5-[2-(2-thienyl)-4-thiazolylmethoxy)benzyl]-4-phenyl-3-pyrrolyl]propionic acid] the figure was 104 to 105 °C; with `CN(CCOc1ccc(Cn2cc(CCC(=O)O)c(-c3ccccc3)c2)cc1)c1ccccn1` [Example 49, 3-[1-[4-[2-[N-methyl-N-(2-pyridyl)amino]ethoxy]benzyl]-4-phenyl-3-pyrrolyl]propionic acid], 110 to 111 °C.
The value for `CCOc1nn(Cc2cncc(OCc3nc(-c4ccccc4)oc3C)c2)cc1CCC(=O)O` [Example 213, 3-[3-ethoxy-1-[5-(5-methyl-2-phenyl-4-oxazolylmethoxy)-3-pyridylmethyl]-1H-pyrazol-4-yl]propionic acid] was 133 to 134 °C.
